The results in this text go back to ChEMBL document CHEMBL5230166, “Novel quinoline-piperazine hybrids: the design, synthesis and evaluation of antibacterial and antituberculosis properties” (RSC Med Chem, 2023).

As a reminder, the MIC is the lowest concentration that inhibits growth of the organism.

Converted amounts (≈) assume the structure as drawn.

This experiment has as its system Mycobacterium tuberculosis. Description: Antibacterial activity multi-drug resistant Mycobacterium tuberculosis H37Rv ATCC 35822 assessed as inhibition of bacterial growth incubated for 2 days by CLSI protocol based broth microdilution method. In kind it is functional. Conditions: H37Rv ATCC 35822, 48 h, time 2 day. (In broth dilution the organism is exposed to a series of concentrations in liquid medium.)
In the case of `COc1cc(CN2CCN(C(=O)c3cccc(Cl)c3)CC2)nc2ccc(F)cc12`, the MIC is more than 64 µg/mL. Then `COc1cc(CN2CCN(C(=O)c3cccc(F)c3)CC2)nc2ccc(F)cc12`, with more than 64 µg/mL; and `COc1cc(CN2CCN(S(=O)(=O)c3ccc(Cl)cc3Cl)CC2)nc2ccc(F)cc12`, with more than 64 µg/mL. The value for `COc1ccc(C(=O)N2CCN(Cc3cc(OC)c4cc(F)ccc4n3)CC2)cc1` was more than 64 µg/mL; that for `COc1cc(CN2CCN(S(=O)(=O)c3ccc(C)cc3)CC2)nc2ccc(F)cc12` was more than 64 µg/mL; that for `COc1ccc2nc(CN3CCN(S(=O)(=O)c4ccc(NC(C)=O)cc4)CC3)cc(OC)c2c1` was more than 64 µg/mL.

Take `COc1cc(CN2CCN(C(=O)c3ccccc3F)CC2)nc2ccc(F)cc12`: the minimal inhibitory concentration (MIC) is more than 64 µg/mL. The value for `COc1ccc2nc(CN3CCN(S(=O)(=O)c4ccccc4C(F)(F)F)CC3)cc(OC)c2c1` was more than 64 µg/mL. The value for `COc1ccc2nc(CN3CCN(S(=O)(=O)c4cccs4)CC3)cc(OC)c2c1` was more than 64 µg/mL; that for `COc1ccc2nc(CN3CCN(C(=O)c4ccccc4F)CC3)cc(OC)c2c1` was more than 64 µg/mL; that for `COc1ccc2nc(CN3CCN(S(=O)(=O)c4c(C)cc(C)cc4C)CC3)cc(OC)c2c1` was more than 64 µg/mL. Then `CNS(=O)(=O)N1CCN(Cc2cc(OC)c3cc(OC)ccc3n2)CC1`, with more than 64 µg/mL. For `COc1cccc(C(=O)N2CCN(Cc3cc(OC)c4cc(OC)ccc4n3)CC2)c1`, the minimum inhibitory concentration (MIC) is more than 64 µg/mL.

`COc1ccc2nc(CN3CCN(C(=O)c4ccccc4OC)CC3)cc(OC)c2c1`: the MIC was more than 64 µg/mL.

As to `COc1cc(CN2CCN(S(=O)(=O)c3ccccc3F)CC2)nc2ccc(F)cc12`, the MIC was 4 µg/mL (≈ 9.23 µM). On to `COc1ccc2nc(CN3CCN(C(=O)c4ccc(Cl)c(Cl)c4)CC3)cc(OC)c2c1`, for which the MIC was more than 64 µg/mL. Then `COc1ccc2nc(CN3CCN(S(=O)(=O)c4cccc5ccccc45)CC3)cc(OC)c2c1`, with more than 64 µg/mL; and `COc1ccc2nc(CN3CCN(C(=O)C4CCC4)CC3)cc(OC)c2c1`, with more than 64 µg/mL; and `COc1ccc(S(=O)(=O)N2CCN(Cc3cc(OC)c4cc(F)ccc4n3)CC2)cc1`, with more than 64 µg/mL.

Consider `COc1cc(CN2CCN(S(=O)(=O)c3ccc(NC(C)=O)cc3)CC2)nc2ccc(F)cc12`, for which the MIC was more than 64 µg/mL.

In the case of `COc1ccc2nc(CN3CCN(C(=O)c4c(Cl)cccc4Cl)CC3)cc(OC)c2c1`, the minimal inhibitory concentration (MIC) is more than 64 µg/mL. Then `COc1cc(CN2CCN(C(=O)c3ccccc3C)CC2)nc2ccc(F)cc12`, with more than 64 µg/mL; and `COc1ccc2nc(CN3CCN(S(=O)(=O)c4ccccc4F)CC3)cc(OC)c2c1`, with 0.5 µg/mL (≈ 1.12 µM). Then `COc1ccc2nc(CN3CCN(S(=O)(=O)c4c(F)c(F)c(F)c(F)c4F)CC3)cc(OC)c2c1`, with more than 64 µg/mL. The value for `COc1ccc2nc(CN3CCN(S(=O)(=O)c4ccc(F)cc4)CC3)cc(OC)c2c1` was more than 64 µg/mL; that for `COc1ccc2nc(CN3CCN(C(=O)c4ccc(Cl)cc4Cl)CC3)cc(OC)c2c1` was more than 64 µg/mL.

As for `C[C@H]1COc2c(N3CCN(C)CC3)c(F)cc3c(=O)c(C(=O)O)cn1c23.C[C@H]1COc2c(N3CCN(C)CC3)c(F)cc3c(=O)c(C(=O)O)cn1c23.O` [LEVOFLOXACIN], the minimum inhibitory concentration (MIC) is 4 µg/mL.

For `CO[C@H]1/C=C/O[C@@]2(C)Oc3c(C)c(O)c4c(O)c(c(/C=N/N5CCN(C)CC5)c(O)c4c3C2=O)NC(=O)/C(C)=C\C=C\[C@H](C)[C@H](O)[C@@H](C)[C@@H](O)[C@@H](C)[C@H](OC(C)=O)[C@@H]1C` [RIFAMPIN], the MIC is more than 64 µg/mL.
